Experiment [1] concerns NCI H69 cells. In words: CellTiter-Glo cell viability assay (cytotoxicity), 8 days. The format is cell-based. Particulars: Homo sapiens, 192 h, full growth media. The method, then: The experiment tested pentamidine, Compounds 1-6 in full growth media for 8 days. NCI H69 cells were initially treated with the test compounds on Day 0, and the cells were then replenished with fresh compound dilutions on Day 3. Pentamidine and Compound 1 were tested at 9 concentration points: 100 μM, 33.33 μM, 11.11 μM, 3.70 μM, 1.23 μM, […], 0.05 μM, and 0.02 μM (final DMSO concentration=0.5%). The raw data values from the CellTiter-Glo™ cell viability assay expressed in relative luminescence units were normalized to the vehicle for each individual plate, and any reduction in luminescence indicated a decrease in viability (%). The data was analyzed in GraphPad PRISM using a non-linear sigmoidal plot with variable slope (asymmetric four-point […]), and an IC50 value for each compound was generated based on the normalized dose-response curves and shown in Table 1.
For orientation: Cellular ATP, detected with luciferase, serves as a proxy for viable cell number.

The subject of experiment [2] is A. baumannii ATCC 17978. In words: Checkerboard assay with novobiocin (FIGS. 2, 3, 5, 6). The format is cell-based, Acinetobacter baumannii. Particulars: for MIC: Acinetobacter baumannii, ATCC17978, substance alone. An excerpt: Novobiocin is an anti-staphylococcal drug, but with limited use. The oral form of novobiocin drug has since been withdrawn from the market due to lack of efficacy. This antibiotic is often used to treat Staphylococcus aureus infection, particularly methicillin resistant S. aureus “MRSA”.

For experiment [3], the system named is S. aureus ATCC 43300. Description: MIC assay against gram positive S. aureus. It counts as cell-based. Particulars: Staphylococcus aureus, ATCC43300. How it is done:
(§1) Then the compound stocks were serially 2-fold diluted in a v-bottom 96-well plate to make 100-fold working solutions. One day before the test, −80° C. glycerol stock of S. aureus strains were streaked on cation-adjusted Mueller-Hinton agar (CAMHA) plates. On the day of test, fresh bacterial colonies were suspended into sterile saline to an OD600 nm of ˜0.1 (equivalent to 0.5 McFarland). The bacterial suspension was firstly 20-fold followed by 50-fold diluted in cation-adjusted Mueller-Hinton broth (CAMHB) plates to 1×10^6 CFU/PO. 198 ul of the inoculum was added into the round-bottom 96-well plates prefilled with 2 ul of 100-fold compound working solutions. After incubating at 35 +/−2° C. in ambient atmosphere for 18-24 h, MIC was recorded as the lowest concentration under which no visible bacterial growth was observed.

In experiment [4] the test system is S. aureus ATCC 27660. Description: MIC assay against gram positive S. aureus. The format is cell-based. Particulars: Staphylococcus aureus, ATCC27660. The method, then:
as §1

The subject of experiment [5] is Citrobacter freundii (ATCC 8090). Description: Checkerboard/MIC assay with rifampicin. It counts as cell-based. Particulars: ATCC8090, substance alone. An excerpt: (§2) The 17 test strains/isolates were: (1) Serratia marcescens (ATCC 13880); (2) Salmonella typhimurium (ATCC 13311); (3) Salmonella choleraesuis (ATCC 10708); (4) Acinetobacter baumannii (ATCC BAA-1605); (5) A. baumannii (ATCC 17978); (6) A. baumannii (FDA-CDC AR-BANK#0088); (7) Citrobacter freundii (ATCC 8090); (8) Pseudomonas aeruginosa (BCCM 27647); (9) P. aeruginosa (BCCM 27648); (10) Escherichia coli (ATCC 25922); (11) E. coli (ATCC 10536); (12) Stenotrophomonas maltophilia (ATCC 13637); (13) Enterobacter cloacae (ATCC BAA-1143); (14) E. cloacae (ATCC 13047); (15) E. aerogenes (ATCC 13048); (16) Klebsiella pneumoniae (NCTC 13438); and (17) Klebsiella pneumoniae (FDA-CDC AR-BANK#0160). These bacterial strains were obtained from the American Type Culture Collection (ATCC, Rockville, MD, USA); Belgian Coordinated Collections of Microorganisms; The Culture Collections of Public Health England, UK; and FDA-CDC anticimrobial Resistance Isolate Bank, USA, and cryopreserved as single-use frozen working stock cultures which were stored at −80° C.
(§3) The 17 test strains were grown on nutrient agar or tryptic soy agar (TSA) medium as below. Colonies were suspended in phosphate buffered saline (PBS) pH 7.4. The absorbance of the bacterial suspension was measured with a spectrophotometer at OD620nm, and then the suspension was adjusted to 1-2×10^8 CFU/mL in PBS. The adjusted suspension was further diluted 1:500 in cation-adjusted Mueller-Hinton Broth. Each well contained approximately 5×10^5 CFU/mL. […] The testing inoculum was prepared within minutes before adding to wells of the test plate.
(§4) Compound 3 was tested in 8 points by two-fold serial titrations from 100 to 0.78 μg/mL. […] Assay plates were incubated and MIC endpoints were read as complete inhibition of visual growth. The checkerboard combination analysis was performed following the MIC testing protocol to identify potential synergistic, indifferent or antagonistic interactions. The analysis also included each test substance alone at the same concentration ranges.
(§5) FIC (Fraction Inhibitory Concentration) and FIC Index (FICI) values for each test condition and the average of FICI values of all pairwise combinations were calculated to determine if synergy or antagonism existed between the two substances. The FIC index was determined by calculating the sum of the ratios of MICs (minimum inhibitory concentrations) for both substances. […] Synergy is defined as the FICI (Σ)≤0.5; additivity or indifference are defined as the FICI (Σ)>0.5 to ≤4; antagonism is defined as the FICI (Σ)>4. The two fold of highest test article concentration was used for FIC value calculations in the circumstances where MIC values were greater than the highest test article concentration.

The test system of experiment [6] is E. cloacae (ATCC 13047). In words: Checkerboard/MIC assay with rifampicin. The format is cell-based. Particulars: ATCC13047; substance alone; Enterobacter cloacae ATCC-13047.
From the text: as §2, §3, §4, §5

Experiment [7] deals with Klebsiella pneumoniae (NCTC 13438). In words: Checkerboard/MIC assay with rifampicin. The format is cell-based. Particulars: NCTC13438, substance alone.
From the text: as §2, §3, §4, §5

Experiment [8] concerns Salmonella typhimurium (ATCC 13311). In words: Checkerboard/MIC assay with rifampicin. The format is cell-based. Particulars: Salmonella enterica; substance alone; Salmonella typhimurium ATCC13311.
From the text: as §2, §3, §4, §5

The subject of experiment [9] is Pseudomonas aeruginosa (BCCM 27647). In words: Checkerboard/MIC assay with rifampicin. Conditions: substance alone; Pseudomonas aeruginosa BCCM27647. It counts as cell-based.
From the text: as §2, §3, §4, §5

The subject of experiment [10] is Escherichia coli (ATCC 25922). In words: Checkerboard/MIC assay with rifampicin. It counts as cell-based. Conditions: ATCC25922, substance alone.
From the text: as §2, §3, §4, §5

Experiment [11] concerns A. baumannii (FDA-CDC AR-BANK#0088). In words: Checkerboard/MIC assay with rifampicin. The format is cell-based. Particulars: substance alone; Acinetobacter baumannii AR-BANK 0088.
From the text: as §2, §3, §4, §5

Experiment [12] concerns Stenotrophomonas maltophilia (ATCC 13637). In words: Checkerboard/MIC assay with rifampicin. The format is cell-based. Conditions: ATCC13637, substance alone.
From the text: as §2, §3, §4, §5

Experiment [13] deals with Serratia marcescens (ATCC 13880). In words: Checkerboard/MIC assay with rifampicin. Conditions: ATCC13880, substance alone. It counts as cell-based.
From the text: as §2, §3, §4, §5

The subject of experiment [14] is P. aeruginosa (BCCM 27648). Description: Checkerboard/MIC assay with rifampicin. It counts as cell-based. Conditions: substance alone; Pseudomonas aeruginosa BCCM27648.
From the text: as §2, §3, §4, §5

Experiment [15] has as its system E. coli (ATCC 10536). In words: Checkerboard/MIC assay with rifampicin. It counts as cell-based. Particulars: ATCC10536; substance alone; Escherichia coli ATCC 10536.
From the text: as §2, §3, §4, §5

Experiment [16] relates to Salmonella choleraesuis (ATCC 10708). In words: Checkerboard/MIC assay with rifampicin. It counts as cell-based. Particulars: Salmonella enterica.
From the text: as §2, §3, §4, §5

Experiment [17] deals with Enterobacter cloacae (ATCC BAA-1143). Description: Checkerboard/MIC assay with rifampicin. The format is cell-based. Particulars: substance alone; Enterobacter cloacae BAA-1143.
From the text: as §2, §3, §4, §5

In experiment [18] the test system is A. baumannii (ATCC 17978). In words: Checkerboard/MIC assay with rifampicin. It counts as cell-based. Particulars: ATCC17978; substance alone; Acinetobacter baumannii ATCC 17978.
From the text: as §2, §3, §4, §5

Experiment [19] deals with E. aerogenes (ATCC 13048). In words: Checkerboard/MIC assay with rifampicin. The format is cell-based. Particulars: Klebsiella aerogenes, ATCC13048; substance alone; Enterobacter aerogenes ATCC-13048.
From the text: as §2, §3, §4, §5

The test system of experiment [20] is Acinetobacter baumannii (ATCC BAA-1605). In words: Checkerboard/MIC assay with rifampicin. The format is cell-based. Conditions: substance alone; Acinetobacter baumannii BAA-1605.
From the text: as §2, §3, §4, §5

Experiment [21] concerns Klebsiella pneumoniae (FDA-CDC AR-BANK#0160). In words: Checkerboard/MIC assay with rifampicin. Particulars: substance alone; Klebsiella pneumoniae AR-BANK#0160. The format is cell-based.
From the text: as §2, §3, §4, §5

The source of these data is patent US20230391727A1, “ANALOGUES OF PENTAMIDINE AND METHODS FOR TREATING INFECTIONS” (Auransa Inc., priority 2020, published 2023).

≈ marks a conversion by molar mass, not a printed value. Bounds are passed on as bounds.

For `N=C(N)c1cccc(CCCCCCCc2cccc(C(=N)N)c2)c1` [Compound 1, 3,3′-(heptane-1,7-diyl)dibenzimidamide], the IC50 (in general, the concentration needed to halve the response being measured) in experiment [1] was 0.31 µM. Further, in [2], the “synergistic effect with novobiocin” value is “clear synergistic effects”; the “synergy with novobiocin as compared to pentamidine with novobiocin” value is “superior synergy”; the MIC (as a rule, the lowest concentration that inhibits growth of the organism) was determined as 149 µM.

Compound `N=C(N)c1ccc(CC[C@@H]2CCC[C@@H](CCc3ccc(C(=N)N)cc3)C2)cc1` [Compound 4, 4,4′-(2,2′-((1R,3R)-cyclohexane-1,3-diyl)bis(ethane-2,1-diyl))dibenzimidamide] yielded an IC50 in experiment [1] of 0.75 µM.

`N=C(N)c1ccc(CC[C@@H]2CCC[C@H](CCc3ccc(C4CCNC4)cc3)C2)cc1` (stereo partly drawn) [Compound 5, 4-(2-((1S,3R)-3-(4-(pyrrolidin-3-yl)phenethyl)cyclohexyl)ethyl)benzimidamide] registered an IC50 in [1] of 1.46 µM. Further, the MIC in experiment [3] and in experiment [4] was 8 µg/mL (≈ 19.8 µM) each time.

Compound `N=C(N)c1cccc(CC[C@H]2CCC[C@@H](CCc3cccc(C(=N)N)c3)C2)c1` [Compound 6, 3,3′-(((1R,3S)-cyclohexane-1,3-diyl)bis(ethane-2,1-diyl))dibenzimidamide] gave an IC50 in experiment [1] of 0.33 µM.

On to `Nc1nccc2ccc(CCCCCCCc3ccc4ccnc(N)c4c3)cc12` [Compound 7, 7,7′-(heptane-1,7-diyl)bis(isoquinolin-1-amine)], for which the IC50 in experiment [1] was 1.15 µM. In addition, in [2], the “synergistic effect with novobiocin” value was “no synergistic effect” and the MIC came to 8.13 µM.

The compound `N=C(N)c1ccc(CCCCCCCc2ccc(C3CCNC3)cc2)cc1` (stereo not drawn) [Compound 8, 4-(7-(4-(pyrrolidine-3-yl)phenyl)heptyl)benzimidamide] came in with an IC50 in experiment [1] of 1.92 µM. For the same compound, in [2], the “synergy with novobiocin as compared to pentamidine with novobiocin” value is recorded as “increased synergy” and the MIC was over 34.4 µM.

For the compound `N=C(N)c1ccc(OCCCCCOc2ccc(C(=N)N)cc2)cc1` [Pentamidine, 1,5-bis(4-amidinophenoxy)pentane], the MIC in experiment [3] came out at 64 µg/mL (≈ 188 µM); in experiment [4], 16 µg/mL (≈ 47 µM).

For `CO[C@H]1/C=C/O[C@@]2(C)Oc3c(C)c(O)c4c(O)c(c(/C=N/N5CCN(C)CC5)c(O)c4c3C2=O)NC(=O)/C(C)=C\C=C\[C@H](C)[C@H](O)[C@@H](C)[C@@H](O)[C@@H](C)[C@H](OC(C)=O)[C@@H]1C` [Rifampicin, reference compound], the minimum inhibitory concentration (MIC) in [5] was over 12.5 µg/mL; in experiment [6] it was over 12.5 µg/mL; in experiment [7], over 12.5 µg/mL; in [8], over 12.5 µg/mL; in [9], over 12.5 µg/mL; in experiment [10] it was 6.25 µg/mL. Also, the MIC in [11] is 3.12 µg/mL; in [12] it was 6.25 µg/mL; in [13], over 12.5 µg/mL; in [14], over 12.5 µg/mL; in [15], 3.12 µg/mL; in [16], 12.5 µg/mL. The MIC in experiment [17] was over 12.5 µg/mL; in experiment [18] it was 6.25 µg/mL; in experiment [19], over 12.5 µg/mL; in [20], 3.12 µg/mL; in experiment [21] it was over 12.5 µg/mL.

`CO[C@@H]1[C@@H](OC(N)=O)[C@@H](O)[C@H](Oc2ccc3c(O)c(NC(=O)c4ccc(O)c(CC=C(C)C)c4)c(=O)oc3c2C)OC1(C)C` [novobiocin, reference compound]: the MIC in experiment [2] is over 18.9 µM. Moreover, the “MIC of novobiocin when FICI is calculated” value in [2] (value used for FICI calculation) was 37.8 µM.
